The text below walks through data of paper PMC8519428, “Structural analysis of the boronic acid β-lactamase inhibitor vaborbactam binding to Pseudomonas aeruginosa penicillin-binding protein 3” (PLoS ONE, 2021).

pIC50: −log10 of the molar value.

The target of the experiment is T1, penicillin-binding protein 3 (PBP3) (Pseudomonas aeruginosa, UniProt G3XD46).
T1 construct: gene ftsI; final PBP3 model contains residues 57–190, 213–490, and 501–561
The experiment in a line: X-ray crystal structure ([…] Å, soak); also Bocillin competition assay (IC50) and DSF thermal shift (about […] °C).

T1 sequence (G3XD46 50-579): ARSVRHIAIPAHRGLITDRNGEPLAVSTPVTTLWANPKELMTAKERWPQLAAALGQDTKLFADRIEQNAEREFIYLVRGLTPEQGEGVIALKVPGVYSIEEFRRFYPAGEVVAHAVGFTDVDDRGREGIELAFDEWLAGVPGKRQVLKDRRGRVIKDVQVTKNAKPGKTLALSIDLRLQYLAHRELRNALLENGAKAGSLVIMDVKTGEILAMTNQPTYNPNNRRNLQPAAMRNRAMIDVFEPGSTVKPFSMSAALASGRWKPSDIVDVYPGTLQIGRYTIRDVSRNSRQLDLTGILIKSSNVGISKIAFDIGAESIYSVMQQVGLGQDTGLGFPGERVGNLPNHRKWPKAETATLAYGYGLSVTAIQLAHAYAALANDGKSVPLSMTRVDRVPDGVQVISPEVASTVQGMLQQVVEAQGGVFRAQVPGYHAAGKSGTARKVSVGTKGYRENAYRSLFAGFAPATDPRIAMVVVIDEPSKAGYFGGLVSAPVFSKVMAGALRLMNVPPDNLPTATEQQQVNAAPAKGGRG

Turning to `O=C(O)C[C@@H]1CC[C@H](NC(=O)Cc2cccs2)B(O)O1` [vaborbactam], the pIC50 was 3.58.
